From patent publication US9107411B2, “Indolecarboxamides and benzimidazolecarboxamides as insecticides and acaricides” (BAYER INTELLECTUAL PROPERTY GMBH, priority 2011, dated 2015)
Read-outs that look alike come from different tables or passages of the source.

Legend:
Tetranychus urticae = test: Tetranychus test, OP-resistant (TETRUR spray treatment); format: in vivo; details: bean leaf discs, after 6 days
Protocol: Tetranychus Test, OP-Resistant (TETRUR Spray Treatment)
Solvent: 78.0 parts by weight of acetone • • 1.5 parts by weight of dimethylformamide
Emulgator: 0.5 part by weight of alkylaryl polyglycol ether
To produce an appropriate active ingredient formulation, 1 part by weight of active ingredient is mixed with the stated amounts of solvent and emulsifier, and the concentrate is diluted with emulsifier-containing water to the desired concentration.
Discs of bean leaves (Phaseolus vulgaris) infested by all stages of the red spider mite (Tetranychus urticae) are sprayed with an active ingredient formulation of the desired concentration.
After 6 days, the efficacy in % is determined. 100% means that all of the spider mites have been killed; 0% means that none of the spider mites have been killed.

logP (HPLC-MS) = format: physicochemical
Spodoptera frugiperda = Spodoptera frugiperda test (SPODFR spray treatment); format: in vivo; details: maize leaf discs, after 7 days
Protocol: Spodoptera frugiperda Test (SPODFR Spray Treatment) Solvent: 78.0 parts by weight of acetone • • 1.5 parts by weight of dimethylformamide To produce an appropriate active ingredient formulation, 1 part by weight of active ingredient is mixed with the stated amounts of solvent and emulsifier, and the concentrate is diluted with emulsifier-containing water to the desired concentration. Leaf discs of maize (Zea mays) are sprayed with an active ingredient formulation of the desired concentration and, after drying, populated with caterpillars of the armyworm (Spodoptera frugiperda). After 7 days, the efficacy in % is determined 100% means that all of the caterpillars have been killed; 0% means that none of the caterpillars have been killed.

Phaedon cochleariae = test: Phaedon test (PHAECO spray treatment); format: in vivo; details: Chinese cabbage leaf discs, after 7 days
Protocol: Phaedon Test ([…] Spray Treatment) Solvent: 78.0 parts by weight of acetone • • 1.5 parts by weight of dimethylformamide Emulsifier: 0.5 part by weight of alkylaryl polyglycol ether To produce an appropriate active ingredient formulation, 1 part by weight of active ingredient is mixed with the stated amounts of solvent and emulsifier, and the concentrate is diluted with emulsifier-containing water to the desired concentration. Leaf discs of Chinese cabbage (Brassica pekinensis) are sprayed with an active ingredient formulation of the desired concentration and, after drying, populated with larvae of the mustard beetle (Phaedon cochleariae). After 7 days, the efficacy in % is determined. 100% means that all of the beetle larvae have been killed; 0% means that none of the beetle larvae have been killed.

[1] = HPLC, reversed-phase column (C18), 43° C., acidic range pH 2.7, EEC directive 79/831 Annex V.A8, two values = both regioisomers (G = N)
[2] = HPLC, reversed-phase column (C18), acidic range pH 2.7, acetonitrile (0.1% formic acid)/water gradient, 43° C., calibration with unbranched alkan-2-ones
[3] = HPLC, reversed-phase column (C18), acidic range pH 2.7, acetonitrile (0.1% formic acid)/water gradient, 43° C., calibration with unbranched alkan-2-ones, read-out: log p

## CCn1c(C(=O)NC(c2cc(Cl)c(F)c(Cl)c2)C(F)(F)F)cc2cc(C(=O)NC3CC3)c(C)cc21 (stereo not drawn) [Compound 296]
Tetranychus urticae; application rate 100 g/ha
  efficacy in %: 100%
logP (HPLC-MS); [1]
  log p: 4.16
Spodoptera frugiperda; application rate 100 g/ha
  efficacy in %: 100%
Phaedon cochleariae; application rate 100 g/ha
  efficacy in %: 100%

## CCn1c(C(=O)NC(c2ccc(Cl)c(Cl)c2)C(F)(F)F)cc2cc(C(=O)NC3CC3)c(C)cc21 (stereo not drawn) [Compound 297]
Tetranychus urticae; application rate 100 g/ha
  efficacy in %: 100%
logP (HPLC-MS); [1]
  log p: 3.99
Spodoptera frugiperda; application rate 100 g/ha
  efficacy in %: 100%
Phaedon cochleariae; application rate 100 g/ha
  efficacy in %: 100%

## CCn1c(C(=O)NC(c2cccc(Cl)c2)C(F)(F)F)cc2cc(C(=O)NC3(C#N)CC3)c(C)cc21 (stereo not drawn) [Compound 185]
Tetranychus urticae; application rate 100 g/ha
  efficacy in %: 100%
logP (HPLC-MS); [2]
  log p: 3.58
Spodoptera frugiperda; application rate 100 g/ha
  efficacy in %: 100%
Phaedon cochleariae; application rate 100 g/ha
  efficacy in %: 100%

## C#CCn1c(C(=O)NC(c2cc(Cl)cc(Cl)c2)C(F)(F)F)cc2cc(C(=O)NC3(C#N)CC3)c(Cl)cc21 (stereo not drawn) [Compound 66]
Tetranychus urticae; application rate 100 g/ha
  efficacy in %: 100%
logP (HPLC-MS); [2]
  log p: 3.87
Spodoptera frugiperda; application rate 100 g/ha
  efficacy in %: 100%
Phaedon cochleariae; application rate 100 g/ha
  efficacy in %: 100%

## C#CCn1c(C(=O)NC(c2ccc(F)c(Cl)c2)C(F)(F)F)cc2cc(C(=O)NC3(C#N)CC3)c(Cl)cc21 (stereo not drawn) [Compound 64]
Tetranychus urticae; application rate 100 g/ha
  efficacy in %: 100%
logP (HPLC-MS); [2]
  log p: 3.41
Spodoptera frugiperda; application rate 100 g/ha
  efficacy in %: 100%
Phaedon cochleariae; application rate 100 g/ha
  efficacy in %: 100%

## C#CCn1c(C(=O)NC(c2cc(Cl)c(Cl)c(Cl)c2)C(F)(F)F)cc2cc(C(=O)NC3(C#N)CC3)c(Cl)cc21 (stereo not drawn) [Compound 277]
Tetranychus urticae; application rate 100 g/ha
  efficacy in %: 90%
logP (HPLC-MS); [2]
  log p: 4.24
Spodoptera frugiperda; application rate 100 g/ha
  efficacy in %: 100%
Phaedon cochleariae; application rate 100 g/ha
  efficacy in %: 100%

## N#CC1(NC(=O)c2cc3cc(C(=O)NC(c4cccc(C(F)(F)F)c4)C(F)(F)F)n(C4CCC4)c3cc2Cl)CC1 (stereo not drawn) [Compound 274]
Tetranychus urticae; application rate 500 g/ha
  efficacy in %: 100%
logP (HPLC-MS); [2]
  log p: 4.03
Spodoptera frugiperda; application rate 500 g/ha
  efficacy in %: 100%
Phaedon cochleariae; application rate 500 g/ha
  efficacy in %: 100%

## CCn1c(C(=O)NC(c2cccc(C(F)(F)F)c2)C(F)(F)F)nc2cc(C(=O)NC3CC3)c(Cl)cc21 (stereo not drawn) [Compound 4, 6-chloro-N^5-cyclopropyl-1-ethyl-N^2-{2,2,2-trifluoro-1-[3-(trifluoromethyl)phenyl]ethyl}-1H-benzimidazole-2,5-dicarboxamide]
Tetranychus urticae; application rate 500 g/ha
  efficacy in %: 100%
logP (HPLC-MS); [3]
  chromatographic logP: 3.67
logP (HPLC-MS); HPLC-MS
  chromatographic logP: 3.71
Spodoptera frugiperda; application rate 500 g/ha
  efficacy in %: 100%
Phaedon cochleariae; Phaedon cochleariae, foliar, 168 h, application rate 500 g/ha, read-out: efficacy in %
  pest or weed control at 500 g/ha: 100%

## CCn1c(C(=O)NC(c2ccc(F)c(C(F)(F)F)c2)C(F)(F)F)cc2cc(C(=O)NC(C)C)c(C)cc21 (stereo not drawn) [Compound 305]
Tetranychus urticae; application rate 100 g/ha
  efficacy in %: 100%
logP (HPLC-MS); [1]
  log p: 4.16
Spodoptera frugiperda; application rate 100 g/ha
  efficacy in %: 100%
Phaedon cochleariae; application rate 100 g/ha
  efficacy in %: 100%

## CCn1c(C(=O)NC(c2cccc(C(F)(F)F)c2)C(F)(F)F)cc2cc(C(=O)NC(C)C#N)c(Cl)cc21 (stereo not drawn) [Compound 9]
Tetranychus urticae; application rate 100 g/ha
  efficacy in %: 90%
logP (HPLC-MS); [2]
  log p: 3.72
Spodoptera frugiperda; application rate 100 g/ha
  efficacy in %: 100%
Phaedon cochleariae; application rate 100 g/ha
  efficacy in %: 100%

## Cn1c(C(=O)NC(c2cccc(Cl)c2)C(F)(F)F)cc2cc(C(=O)NC3(C#N)CC3)c(Cl)cc21 (stereo not drawn) [Compound 46]
Tetranychus urticae; application rate 100 g/ha
  efficacy in %: 100%
logP (HPLC-MS); [2]
  log p: 3.31
Phaedon cochleariae; application rate 100 g/ha
  efficacy in %: 100%

## CCn1c(C(=O)NC(c2cc(Cl)cc(Cl)c2)C(F)(F)F)cc2cc(C(=O)NC3(C#N)CC3)c(Cl)cc21 (stereo not drawn) [Compound 43]
Tetranychus urticae; application rate 100 g/ha
  efficacy in %: 100%
logP (HPLC-MS); [2]
  log p: 4.14
Spodoptera frugiperda; application rate 100 g/ha
  efficacy in %: 100%
Phaedon cochleariae; application rate 100 g/ha
  efficacy in %: 100%

## CCn1c(C(=O)NC(c2cccc(C(F)(F)F)c2)C(F)(F)F)cc2cc(C(=O)NC3(C(N)=S)CC3)c(Cl)cc21 (stereo not drawn) [Compound 273, N^5-(1-carbamothioylcyclopropyl)-6-chloro-1-ethyl-N^2-{2,2,2-trifluoro-1-[3-(trifluoromethyl)phenyl]ethyl}-1H-indole-2,5-dicarboxamide]
Tetranychus urticae; application rate 100 g/ha
  efficacy in %: 100%
logP (HPLC-MS); [3]
  chromatographic logP: 3.56
logP (HPLC-MS); HPLC-MS
  chromatographic logP: 3.56
Spodoptera frugiperda; application rate 100 g/ha
  efficacy in %: 100%
Phaedon cochleariae; Phaedon cochleariae, foliar, 168 h, application rate 100 g/ha, read-out: efficacy in %
  pest or weed control at 100 g/ha: 100%

## C#CCn1c(C(=O)NC(c2cccc(OC(F)F)c2)C(F)(F)F)cc2cc(C(=O)NC3CC3)c(Cl)cc21 (stereo not drawn) [Compound 278]
Tetranychus urticae; application rate 100 g/ha
  efficacy in %: 90%
logP (HPLC-MS); [2]
  log p: 3.32
Spodoptera frugiperda; application rate 100 g/ha
  efficacy in %: 100%
Phaedon cochleariae; application rate 100 g/ha
  efficacy in %: 100%
